Results from PMC7419507, “In vitro Cas9-assisted editing of modular polyketide synthase genes to produce desired natural product derivatives” (Nature Communications, 2020).
“And” between values parts separate entries of the source, which are not always exact repeats. Equal values may be shown once.

Experiments:
Format in all cases: cell-based
[1] = test system: malignant pleural mesothelioma MESO-1 cells; assay: Cytotoxicity assay (CellTiter-Glo, 72 h), MESO-1; details: raw replicate data
Summary of the method: (§1)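 Cells were seeded at 1000 cells/well and allowed 4 h at 37 °C, 5% CO2 before 2-fold compound dilutions in DMSO were added (0.5% final DMSO). After 72 h exposure, viability was read by CellTiter-Glo luminescence.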

[2] = Cytotoxicity assay (CellTiter-Glo, 72 h), MESO-1; details: human
Summary of the method: as §1

T lymphoma Jurkat cells = assay: Cytotoxicity assay (CellTiter-Glo, 72 h), Jurkat; details: raw data (replicates)
Summary of the method: as §1

Q: For `COC1CC2CCC(C)C(O)(O2)C(=O)C(=O)N2CCCCC2C(=O)OC(C(C)CC2CCC(O)C(OC)C2)CCC(C)C=C(C)C(O)C(OC)C(=O)C(C)CC(C)C=CC=CC=C1C` (stereo not shown) [Compound 16, 32-desketorapamycin], which “MESO1 viability (%)” value ([1]; conc 9.53674e-5 uM) is on record?
A: 98.1% and 96.4%

Q: What about the “MESO1 viability (%)” value ([1]; conc 0.000190735 uM) of the same molecule?
A: 91.1% and 98.0%

Q: And the “MESO1 viability (%)” value ([1]; conc 0.00038147 uM)?
A: 95.4% and 92.4%

Q: And the “MESO1 viability (%)” value ([1]; conc 0.000762939 uM)?
A: 78.9% and 75.5%

Q: What about the “MESO1 viability (%)” value ([1]; conc 0.00152588 uM) of the same molecule?
A: 89.1% and 81.4%

Q: And the “MESO1 viability (%)” value ([1]; conc 0.00305176 uM)?
A: 75.1% and 66.9%

Q: What about the “MESO1 viability (%)” value ([1]; conc 0.00610352 uM) of the same molecule?
A: 75.6% and 76.2%

Q: What about the “MESO1 viability (%)” value ([1]; conc 0.012207 uM) of the same molecule?
A: 76.9% and 75.8%

Q: What about the “MESO1 viability (%)” value ([1]; conc 0.0244141 uM) of the same molecule?
A: 81.3% and 75.2%

Q: What about the “MESO1 viability (%)” value ([1]; conc 0.0488281 uM) of the same molecule?
A: 73.0% and 74.7%

Q: And the “MESO1 viability (%)” value ([1]; conc 0.0976562 uM)?
A: 75.8%

Q: What about the “MESO1 viability (%)” value ([1]; conc 0.195312 uM) of the same molecule?
A: 76.9% and 68.9%

Q: What about the “MESO1 viability (%)” value ([1]; conc 0.390625 uM) of the same molecule?
A: 78.5%

Q: What about the “MESO1 viability (%)” value ([1]; conc 0.78125 uM) of the same molecule?
A: 69.3% and 68.9%

Q: What about the “MESO1 viability (%)” value ([1]; conc 1.5625 uM) of the same molecule?
A: 73.6% and 69.8%

Q: What about the “MESO1 viability (%)” value ([1]; conc 3.125 uM) of the same molecule?
A: 61.9% and 65.8%

Q: And the “MESO1 viability (%)” value ([1]; conc 6.25 uM)?
A: 68.9% and 66.9%

Q: What about the “MESO1 viability (%)” value ([1]; conc 12.5 uM) of the same molecule?
A: 60.8% and 58.2%

Q: And the “MESO1 viability (%)” value ([1]; conc 25 uM)?
A: 49.9% and 47.7%

Q: What about the “MESO1 viability (%)” value ([1]; conc 50 uM) of the same molecule?
A: 33.7% and 30.2%

Q: What about the viability at 72 h ([2]; MESO-1 cells (malignant pleural mesothelioma), MESO-1 cells, 72 h, read-out: Plateau level of cell viability in the dose-response curve) of the same molecule?
A: ~75%

Q: And the viability at 72 h, 9.53674e-05 uM ([2]; MESO-1 malignant pleural mesothelioma cells, conc 9.53674e-5 uM, raw replicate data, read-out: MESO1 viability (%))?
A: 102%

Q: What about the viability at 72 h, 0.000190735 uM ([2]; MESO-1 malignant pleural mesothelioma cells, conc 0.000190735 uM, raw replicate data, read-out: MESO1 viability (%)) of the same molecule?
A: 86.2%

Q: And the viability at 72 h, 0.00038147 uM ([2]; MESO-1 malignant pleural mesothelioma cells, conc 0.00038147 uM, raw replicate data, read-out: MESO1 viability (%))?
A: 94.8%

Q: What about the viability at 72 h, 0.000762939 uM ([2]; MESO-1 malignant pleural mesothelioma cells, conc 0.000762939 uM, raw replicate data, read-out: MESO1 viability (%)) of the same molecule?
A: 80.3%

Q: What about the viability at 72 h, 0.00152588 uM ([2]; MESO-1 malignant pleural mesothelioma cells, conc 0.00152588 uM, raw replicate data, read-out: MESO1 viability (%)) of the same molecule?
A: 82.2%

Q: And the viability at 72 h, 0.00305176 uM ([2]; MESO-1 malignant pleural mesothelioma cells, conc 0.00305176 uM, raw replicate data, read-out: MESO1 viability (%))?
A: 74.9%

Q: What about the viability at 72 h, 0.00610352 uM ([2]; MESO-1 malignant pleural mesothelioma cells, conc 0.00610352 uM, raw replicate data, read-out: MESO1 viability (%)) of the same molecule?
A: 80.5%

Q: What about the viability at 72 h, 0.012207 uM ([2]; MESO-1 malignant pleural mesothelioma cells, conc 0.012207 uM, raw replicate data, read-out: MESO1 viability (%)) of the same molecule?
A: 73.8%

Q: What about the viability at 72 h, 0.0244141 uM ([2]; MESO-1 malignant pleural mesothelioma cells, conc 0.0244141 uM, raw replicate data, read-out: MESO1 viability (%)) of the same molecule?
A: 74.4%

Q: And the viability at 72 h, 0.0488281 uM ([2]; MESO-1 malignant pleural mesothelioma cells, conc 0.0488281 uM, raw replicate data, read-out: MESO1 viability (%))?
A: 72.5%

Q: What about the viability at 72 h, 0.0976562 uM ([2]; MESO-1 malignant pleural mesothelioma cells, conc 0.0976562 uM, raw replicate data, read-out: MESO1 viability (%)) of the same molecule?
A: 78.4%

Q: And the viability at 72 h, 0.195312 uM ([2]; MESO-1 malignant pleural mesothelioma cells, conc 0.195312 uM, raw replicate data, read-out: MESO1 viability (%))?
A: 68.5%

Q: And the viability at 72 h, 0.390625 uM ([2]; MESO-1 malignant pleural mesothelioma cells, conc 0.390625 uM, raw replicate data, read-out: MESO1 viability (%))?
A: 78.4%

Q: What about the viability at 72 h, 0.78125 uM ([2]; MESO-1 malignant pleural mesothelioma cells, conc 0.78125 uM, raw replicate data, read-out: MESO1 viability (%)) of the same molecule?
A: 66.1%

Q: And the viability at 72 h, 1.5625 uM ([2]; MESO-1 malignant pleural mesothelioma cells, conc 1.5625 uM, raw replicate data, read-out: MESO1 viability (%))?
A: 73.1%

Q: What about the viability at 72 h, 3.125 uM ([2]; MESO-1 malignant pleural mesothelioma cells, conc 3.125 uM, raw replicate data, read-out: MESO1 viability (%)) of the same molecule?
A: 67.9%

Q: And the viability at 72 h, 6.25 uM ([2]; MESO-1 malignant pleural mesothelioma cells, conc 6.25 uM, raw replicate data, read-out: MESO1 viability (%))?
A: 67.3%

Q: What about the viability at 72 h, 12.5 uM ([2]; MESO-1 malignant pleural mesothelioma cells, conc 12.5 uM, raw replicate data, read-out: MESO1 viability (%)) of the same molecule?
A: 59.2%

Q: What about the viability at 72 h, 25 uM ([2]; MESO-1 malignant pleural mesothelioma cells, conc 25 uM, raw replicate data, read-out: MESO1 viability (%)) of the same molecule?
A: 53.2%

Q: What about the viability at 72 h, 50 uM ([2]; MESO-1 malignant pleural mesothelioma cells, conc 50 uM, raw replicate data, read-out: MESO1 viability (%)) of the same molecule?
A: 31.7%

Q: And the “Jurkat viability (%)” value (T lymphoma Jurkat cells; conc 9.53674e-5 uM)?
A: 101.4% and 98.2%

Q: And the “Jurkat viability (%)” value (T lymphoma Jurkat cells; conc 0.000190735 uM)?
A: 92.4% and 84.6%

Q: What about the “Jurkat viability (%)” value (T lymphoma Jurkat cells; conc 0.00038147 uM) of the same molecule?
A: 90.4% and 75.5%

Q: And the “Jurkat viability (%)” value (T lymphoma Jurkat cells; conc 0.000762939 uM)?
A: 69.2% and 63.8%

Q: What about the “Jurkat viability (%)” value (T lymphoma Jurkat cells; conc 0.00152588 uM) of the same molecule?
A: 59.9% and 53.6%

Q: And the “Jurkat viability (%)” value (T lymphoma Jurkat cells; conc 0.00305176 uM)?
A: 41.7% and 44.0%

Q: What about the “Jurkat viability (%)” value (T lymphoma Jurkat cells; conc 0.00610352 uM) of the same molecule?
A: 34.2% and 31.7%

Q: What about the “Jurkat viability (%)” value (T lymphoma Jurkat cells; conc 0.012207 uM) of the same molecule?
A: 27.6% and 27.9%

Q: And the “Jurkat viability (%)” value (T lymphoma Jurkat cells; conc 0.0244141 uM)?
A: 27.8% and 26.9%

Q: And the “Jurkat viability (%)” value (T lymphoma Jurkat cells; conc 0.0488281 uM)?
A: 23.6% and 25.9%

Q: And the “Jurkat viability (%)” value (T lymphoma Jurkat cells; conc 0.0976562 uM)?
A: 24.4%

Q: What about the “Jurkat viability (%)” value (T lymphoma Jurkat cells; conc 0.195312 uM) of the same molecule?
A: 26.3% and 22.8%

Q: And the “Jurkat viability (%)” value (T lymphoma Jurkat cells; conc 0.390625 uM)?
A: 23.3%

Q: And the “Jurkat viability (%)” value (T lymphoma Jurkat cells; conc 0.78125 uM)?
A: 22.7% and 23.1%

Q: What about the “Jurkat viability (%)” value (T lymphoma Jurkat cells; conc 1.5625 uM) of the same molecule?
A: 22.0%

Q: What about the “Jurkat viability (%)” value (T lymphoma Jurkat cells; conc 3.125 uM) of the same molecule?
A: 23.1% and 21.1%

Q: What about the “Jurkat viability (%)” value (T lymphoma Jurkat cells; conc 6.25 uM) of the same molecule?
A: 20.5% and 21.0%

Q: What about the “Jurkat viability (%)” value (T lymphoma Jurkat cells; conc 12.5 uM) of the same molecule?
A: 14.7% and 14.4%

Q: And the “Jurkat viability (%)” value (T lymphoma Jurkat cells; conc 25 uM)?
A: 2.4% and 2.3%

Q: And the “Jurkat viability (%)” value (T lymphoma Jurkat cells; conc 50 uM)?
A: 0.267% and 0.233%
